The experiment deals with T1, RgCBM40 R204A (Mediterraneibacter gnavus (Ruminococcus gnavus), UniProt A7B557, R204A).
T1 sequence (A7B557 50-237 R204A): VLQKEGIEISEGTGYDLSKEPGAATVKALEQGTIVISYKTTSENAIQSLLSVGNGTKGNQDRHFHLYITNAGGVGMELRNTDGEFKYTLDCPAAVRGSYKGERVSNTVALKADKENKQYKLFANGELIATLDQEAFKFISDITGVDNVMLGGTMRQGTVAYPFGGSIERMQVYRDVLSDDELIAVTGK
Description: ITC of sialoglycans binding to RgCBM40 mutant R204A. On the set-up: species or system Ruminococcus gnavus ATCC 29149. The following applies: for Kd: ITC. On the procedure:
Site directed mutagenesis of RgGH33 to introduce the D282A mutation in the active site was carried out using the QuikChange kit, following the manufacturer’s instructions, Agilent (Santa Clara, CA, USA). Site-directed mutants of RgCBM40; I95A, Y116A, E126A, R128A, R204A and double mutant R128A/R204A, were obtained from NZyTech (Lisbon, Portugal). The primers are listed in Supplementary Table 4. The integrity of the RgGH33 and RgCBM40 mutants was checked by circular dichroism (CD).
Isothermal titration calorimetry (ITC) experiments were performed using the PEAQ-ITC system (Malvern, Malvern, UK) with a cell volume of 200 µl. Prior to titration protein samples were exhaustively dialysed into PBS. The ligand was dissolved in the dialysis buffer. The cell protein concentration was 115 µM (except for mutant I95A where it was 173 µM and the wild-type interaction with 6′SL where it was 230 µM) and the syringe ligand concentration was 10 mM (25 mM for Neu5Ac). Controls with titrant (sugar) injected into buffer only were subtracted from the data. Analysis was performed using Malvern software, using a single-binding site model. The stoichiometry of binding sites was set to 1.0 as this was evident from the crystal structure. Quantitative and most qualitative experiments were carried out in triplicate.

One may read the Kd as the constant that tells how readily two partners part at equilibrium. Low readings indicate higher affinity, high ones lower affinity.

“Also recorded” adds a separate entry of the source. Bounds are passed on as bounds.

Turning to `CC(=O)N[C@H]1[C@H]([C@H](O)[C@H](O)CO)O[C@@](O[C@H]2[C@@H](O)[C@@H](CO)O[C@@H](O[C@H]3[C@H](O)[C@@H](O)C(O)O[C@@H]3CO)[C@@H]2O)(C(=O)O)C[C@@H]1O` (stereo partly drawn) [3′SL, α2-3 sialyllactose], the “Binding by ITC (in words)” value is reported as “abolished; also recorded: loss of binding” and the Kd was greater than 25 mM.
With `CC(=O)N[C@H]1[C@H]([C@H](O)[C@H](O)CO)O[C@@](OC[C@H]2O[C@@H](O[C@H]3[C@H](O)[C@@H](O)C(O)O[C@@H]3CO)[C@H](O)[C@@H](O)[C@H]2O)(C(=O)O)C[C@@H]1O` (stereo partly drawn) [6′SL, α2,6-sialyllactose], the “Binding by ITC (in words)” value is on record as “abolished” and the dissociation constant Kd was greater than 25 mM.

These data come from article PMC5736709, “Unravelling the specificity and mechanism of sialic acid recognition by the gut symbiont Ruminococcus gnavus” (Nature Communications, 2017).
